Assay results: patent US20230089267A1, “Compositions and Methods For Reducing Immune Intolerance and Treating Autoimmune Disorders” (Lapix Therapeutics, Inc., priority 2021, published 2023)

Tested on: MOG35-55-induced murine EAE model
Assay: MOG35-55-induced murine EAE model versus standards of care (Example 4)
Assay type: in vivo, mice
Method: Experimental autoimmune (allergic) encephalomyelitis (EAE) is considered the best non-clinical model of multiple sclerosis (MS). EAE is characterized by immune responses against CNS tissue and can be induced in animals by immunizing them against proteins of the CNS. In the active EAE model, mice are immunized with MOG35-55 peptide emulsified in Complete Freund's Adjuvant (CFA) by subcutaneous injection at the tail base (0.1 mL of emulsion/mouse) under anesthesia. On the day of injection (Day 0) and 2 days later, mice receive an intraperitoneal injection of Pertussis Toxin (PT) in PBS at 600 ng/mouse/dose (0.1 mL).
Symptoms typically develop in mice 9-14 days after immunization (Day 0). Daily observation and scoring of mice start on Day 9 and continue until the end of the study. Table 5 details the expected clinical symptoms and the scoring criteria used in this study.
To evaluate the therapeutic effects of Compound 2, treatment was initiated after the first clinical symptoms were observed. […] Mice in all groups were monitored and scored daily for clinical symptoms.
At the end of the study, spleens were collected from a representative sample of mice from each group for splenocyte analysis. A single-cell suspension was prepared for cellular phenotyping by flow cytometry. Cells were stained and gated for CD4+ T-cells. Percent FoxP3+/CD4+ T-cells were evaluated by flow cytometry.

Question: For N[C@@H](CNC(=O)Cc1ccc(OCc2cccc3ccccc23)cc1)C(=O)O [Compound 2, (S)-2-Amino-3-(2-(4-(naphthalen-1-ylmethoxy)phenyl)acetamido)propanoic acid], which “disease control after switching from anti-alpha4 integrin” value (10-μg oral dose following one or two injections of anti-alpha4 integrin) is on record?
Answer: resulted in disease control after disease onset

Question: And the “control of MS symptoms after disease onset versus glatiramer acetate” value (all doses and regimens)?
Answer: more effective than glatiramer acetate

Question: What about the “control of MS symptoms after disease onset versus anti-alpha4 integrin” value (daily 10-μg oral dose) of the same compound?
Answer: as effective as a full regimen of anti-alpha4 integrin

Question: What about the “MS clinical score after disease onset” value (doses of Table 6, treatment from clinical score 1) of the same compound?
Answer: reduced the MS clinical score after disease onset in a dose-dependent manner
